# Source: patent US8003766B2, “Monoclonal antibody specific to ochratoxin A” (priority 2009, dated 2011)
# Tests used:
# 9C9H9 mAb (anti-OTA mAb) [1] = assay: direct competitive ELISA (cdELISA); type: binding, mouse; conditions: for concentrations causing 50% inhibition (IC50) binding of mAb to OTA-OVA by free toxin: FIG. 2A
# Method: (§1) Both the cdELISA (direct competitive ELISA) and ciELISA (indirect competitive ELISA) were used to determine the specificity of 9C9H9 mAb.
# Another ELISA method (direct competitive ELISA) was used to characterize mAb. The rabbit anti-mouse-Fc antibody was diluted in PBS (2 μg/mL), and 0.1 mL of the diluted form was coated onto each well. After incubation at 37° C. for 1 h and washing with Tween-PBS. The anti-OTA mAb supernatant was diluted in PBS (5 μg/mL) and 0.1 mL of the diluted form was used to coat each well. After the plate had been incubated at 4° C. overnight, it was washed with Tween-PBS followed by blocking with gelatin-PBS at 37° C. for 30 min. The plate was washed again with Tween-PBS four times, and then OTA standard (0.05 mL/well in PBS) concentrations from 0.01 to 100 ng/mL or samples together with the OTA-HRP conjugate (30 ng/mL, in PBS, 0.05 mL/well) were added and incubated at 37° C. for 50 min. The plate was washed four times with PBS-Tween, and 0.1 mL of TMB substrate solution was added. After incubation at room temperature in the dark for 10 min, the reaction was terminated by adding 0.1 mL of 1 N HCl. The absorbance at 450 nm was determined in the Vmax automatic ELISA reader.
# 9C9H9 mAb (anti-OTA mAb) [2] = assay: indirect competitive ELISA (ciELISA); type: binding, mouse; conditions: for IC50 of binding of mAb to OTA-OVA by free toxin: OTA-OVA coated as solid-phase antigen, FIG. 2B
# Method: as §1
# Indirect Competitive ELISA was than used to characterize each mAb. Briefly, each well of a microtiter plate was coated with 0.1 mL of the OTA-OVA and kept at 4° C. overnight. After the plate had been washed four times with Tween-PBS (0.35 mL/well; 0.05% Tween 20 in PBS) using an automated ELISA washer, 0.17 mL of gelatin-PBS (0.17 mL/well; 0.1% gelatin in PBS) was added and allowed to incubate at 37° C. for 30 min. The plate was washed again and 0.05 mL of OTA standard with concentrations from 0.01 to 100 ng/mL or extracted samples (0.05 mL/well in PBS) were added to each well, and then the anti-OTA mAb (25 ng/mL in PBS, 0.05 mL/well) was added to all wells and incubated at 37° C. for 50 min. After incubation, the plate was washed four times with Tween-PBS, and 0.1 mL of goat antimouse IgG-HRP conjugate (1:20000 dilution) was added and incubated at 37° C. for 45 min. The plate was washed four times with Tween-PBS, and 0.1 mL of TMB substrate solution was added. After 10 min of incubation at room temperature, 0.1 mL of 1 N hydrochloric acid was added to stop the reaction. Absorbance at 450 nm was determined in a Vmax automatic ELISA reader.
# [3] = at a concentration as high as 100 μg/mL
Compound,concentrations causing 50% inhibition (IC50) binding of mAb to OTA-OVA by free toxin (9C9H9 mAb (anti-OTA mAb) [1]) [ng/mL],IC50 of binding of mAb to OTA-OVA by free toxin (9C9H9 mAb (anti-OTA mAb) [2]) [ng/mL],inhibition of the binding of mAb to the marker antigen (OTA-HRP) (9C9H9 mAb (anti-OTA mAb) [1]; [3]),inhibition of the binding of mAb to the marker antigen (OTA-OVA) (9C9H9 mAb (anti-OTA mAb) [2]; [3])
"C[C@@H]1Cc2c(Cl)cc(C(=O)N[C@@H](Cc3ccccc3)C(=O)O)c(O)c2C(=O)O1 [OTA, ochratoxin A]",0.32,0.28,–,–
"C[C@@H]1Cc2ccc(C(=O)N[C@@H](Cc3ccccc3)C(=O)O)c(O)c2C(=O)O1 [OTB, ochratoxin B]",0.17,0.35,–,–
"CCOC(=O)[C@H](Cc1ccccc1)NC(=O)c1cc(Cl)c2c(c1O)C(=O)O[C@H](C)C2 [OTC, ochratoxin C]",0.28,0.25,–,–
N[C@@H](Cc1ccccc1)C(=O)O [phenylalanine],–,–,did not inhibit,did not inhibit
